Laboratory results from patent publication US12122763B2, “Substituted piperidines for androgen receptor degradation” (UBIX THERAPEUTICS, INC., priority 2020, dated 2024).

Target: T1, Androgen Receptor (AR) protein (Homo sapiens, UniProt P10275, T878A)
T1 construct: endogenous in cells; host or cells: LNCaP
Test: Androgen Receptor (AR) protein degradation assay in LNCaP cells, western blotting
Type: cell-based
Details: 20 h; for inhibition at 0.01 µM: 0.01 μM compound; for inhibition at 0.1 µM: 0.1 μM compound; for inhibition at 1 µM: 1 μM compound; for inhibition at 10 µM: 10 μM compound
How it was run: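 AR protein level was detected by western blot (ECL) against GAPDH or β-actin controls, with 8 μg lysate protein loaded per lane after BCA quantification. Lysates came from LNCaP cells exposed to test compound for 20 h, following 3 days of growth in RPMI/10% FBS.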

T1 sequence (P10275 whole entry T878A): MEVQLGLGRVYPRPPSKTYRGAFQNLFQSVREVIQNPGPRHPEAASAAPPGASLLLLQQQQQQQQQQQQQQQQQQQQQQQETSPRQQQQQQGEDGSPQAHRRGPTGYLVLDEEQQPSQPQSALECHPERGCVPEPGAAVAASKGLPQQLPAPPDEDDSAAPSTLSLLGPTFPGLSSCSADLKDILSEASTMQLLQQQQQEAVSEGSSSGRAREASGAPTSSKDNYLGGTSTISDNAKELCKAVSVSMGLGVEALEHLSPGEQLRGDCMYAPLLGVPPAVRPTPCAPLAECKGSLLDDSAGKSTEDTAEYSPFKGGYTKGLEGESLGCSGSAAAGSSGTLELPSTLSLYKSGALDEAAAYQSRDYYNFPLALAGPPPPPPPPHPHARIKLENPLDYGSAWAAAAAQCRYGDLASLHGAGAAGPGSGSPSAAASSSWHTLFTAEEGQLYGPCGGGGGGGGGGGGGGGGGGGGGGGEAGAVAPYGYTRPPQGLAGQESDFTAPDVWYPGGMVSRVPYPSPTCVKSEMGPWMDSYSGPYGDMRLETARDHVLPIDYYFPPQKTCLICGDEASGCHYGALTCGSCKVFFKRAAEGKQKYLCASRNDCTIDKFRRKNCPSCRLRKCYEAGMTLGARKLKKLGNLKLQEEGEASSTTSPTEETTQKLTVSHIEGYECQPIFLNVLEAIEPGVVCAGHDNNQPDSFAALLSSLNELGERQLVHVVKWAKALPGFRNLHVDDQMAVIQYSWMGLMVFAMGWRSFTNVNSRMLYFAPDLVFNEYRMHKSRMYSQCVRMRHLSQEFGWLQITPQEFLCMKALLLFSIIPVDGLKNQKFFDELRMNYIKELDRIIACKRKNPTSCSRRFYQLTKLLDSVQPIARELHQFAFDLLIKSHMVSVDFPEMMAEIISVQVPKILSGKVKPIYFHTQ
T1 sequence (Q96SW2 whole entry partner): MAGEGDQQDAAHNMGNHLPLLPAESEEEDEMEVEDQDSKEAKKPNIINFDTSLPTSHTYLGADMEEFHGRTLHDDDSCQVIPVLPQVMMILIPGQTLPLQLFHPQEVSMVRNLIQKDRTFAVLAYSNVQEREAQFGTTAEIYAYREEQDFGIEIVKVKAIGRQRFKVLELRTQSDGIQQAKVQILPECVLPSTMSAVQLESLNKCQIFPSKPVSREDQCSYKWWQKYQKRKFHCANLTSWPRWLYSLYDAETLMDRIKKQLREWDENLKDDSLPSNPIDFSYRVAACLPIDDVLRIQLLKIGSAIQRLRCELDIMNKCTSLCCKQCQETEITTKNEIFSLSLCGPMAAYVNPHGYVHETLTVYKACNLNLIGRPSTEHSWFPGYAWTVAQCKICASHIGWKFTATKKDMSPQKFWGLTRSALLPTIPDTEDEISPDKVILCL

SMILES	inhibition at 0.01 µM	inhibition at 0.1 µM	inhibition at 1 µM	inhibition at 10 µM
N#Cc1ccc(N2CCC(C(=O)Nc3ccc(N4CCN(C(=O)CCCCCNc5ccc6c(c5)C(=O)N(C5CCC(=O)NC5=O)C6=O)CC4)cn3)CC2)cc1Cl (stereo not shown) [Example 112, 1-(3-chloro-4-cyanophenyl)-N-(5-(4-(6-((2-(2,6-dioxopiperidin-3-yl)-1,3-dioxoisoindolin-5-yl)amino)hexanoyl)piperazin-1-yl)pyridin-2-yl)piperidine-4-carboxamide]	9%	55%	50%	48%
N#Cc1ccc(N2CCC(C(=O)Nc3ccc(C#CCN4CC5(CCN(c6ccc7c(c6)C(=O)N(C6CCC(=O)NC6=O)C7=O)CC5)C4)cn3)CC2)cc1C(F)(F)F (stereo not shown) [Example 134, 1-(4-cyano-3-(trifluoromethyl)phenyl)-N-(5-(3-(7-(2-(2,6-dioxopiperidin-3-yl)-1,3-dioxoisoindolin-5-yl)-2,7-diazaspiro[3.5]nonan-2-yl)prop-1-yn-1-yl)pyridin-2-yl)piperidine-4-carboxamide]	56%	87%	96%	92%
N#Cc1ccc(N2CCC(C(=O)Nc3ccc(N4CCC(CN5CCC6(CC5)CCN(c5ccc7c(c5)C(=O)N(C5CCC(=O)NC5=O)C7=O)CC6)CC4)cn3)CC2)cc1Cl (stereo not shown) [Example 69, 1-(3-chloro-4-cyanophenyl)-N-(5-(4-((9-(2-(2,6-dioxopiperidin-3-yl)-1,3-dioxoisoindolin-5-yl)-3,9-diazaspiro[5.5]undecan-3-yl)methyl)piperidin-1-yl)pyridin-2-yl)piperidine-4-carboxamide]	40%	83%	85%	82%
N#Cc1ccc(N2CCC(C(=O)Nc3ccc(N4CCC(CN5CC6(CCN(c7ccc8c(c7)C(=O)N(C7CCC(=O)NC7=O)C8=O)CC6)C5)CC4)nc3)CC2)cc1C(F)(F)F (stereo not shown) [Example 59, 1-(4-cyano-3-(trifluoromethyl)phenyl)-N-(6-(4-((7-(2-(2,6-dioxopiperidin-3-yl)-1,3-dioxoisoindolin-5-yl)-2,7-diazaspiro[3.5]nonan-2-yl)methyl)piperidin-1-yl)pyridin-3-yl)piperidine-4-carboxamide]	9%	32%	47%	68%
N#Cc1ccc(N2CCC(C(=O)Nc3ccc(N4CCC(CN5CCN(C6CCN(c7ccc(C(=O)NC8CCC(=O)NC8=O)nc7)CC6)CC5)CC4)cn3)CC2)cc1C(F)(F)F (stereo not shown) [Example 105, 5-(4-(4-((1-(6-(1-(4-cyano-3-(trifluoromethyl)phenyl)piperidine-4-carboxamido)pyridin-3-yl)piperidin-4-yl)methyl)piperazin-1-yl)piperidin-1-yl)-N-(2,6-dioxopiperidin-3-yl)picolinamide]	43%	82%	92%	
N#Cc1ccc(N2CCC(C(=O)Nc3ccc(N4CCC(CCN5CCN(C6CN(c7ccc8c(n7)CN(C7CCC(=O)NC7=O)C8=O)C6)CC5)CC4)cn3)CC2)cc1C(F)(F)F (stereo not shown) [Example 100, 1-(4-cyano-3-(trifluoromethyl)phenyl)-N-(5-(4-(2-(4-(1-(6-(2,6-dioxopiperidin-3-yl)-5-oxo-6,7-dihydro-5H-pyrrolo[3,4-b]pyridin-2-yl)azetidin-3-yl)piperazin-1-yl)ethyl)piperidin-1-yl)pyridin-2-yl)piperidine-4-carboxamide]	31%	84%	89%	
CC1(C(=O)Nc2ccc(N3CCC(CN4CC5(CCN(c6ccc7c(c6)C(=O)N(C6CCC(=O)NC6=O)C7=O)CC5)C4)CC3)cn2)CCN(c2ccc(C#N)c(C(F)(F)F)c2)CC1 (stereo not shown) [Example 51, 1-(4-cyano-3-(trifluoromethyl)phenyl)-N-(5-(4-((7-(2-(2,6-dioxopiperidin-3-yl)-1,3-dioxoisoindolin-5-yl)-2,7-diazaspiro[3.5]nonan-2-yl)methyl)piperidin-1-yl)pyridin-2-yl)-4-methylpiperidine-4-carboxamide]	33%	85%	94%	
